The test relates to HDM-specific T cells expanded from PBMCs of HDM-allergic individuals. Nature of the test: T cell reactivity of peptides: IFN/IL-5 ELISPOT on in vitro expanded HDM-specific T cells. Format: cell-based, human. The settings on record: for SFC/donor: individual peptides 10 μg/mL; for % responder: percentage of donors that produced a response against the peptide, 10 μg/mL. The procedure: Each sequence of an “L” cluster was aligned separately using the MEGA software tool with ClustalW. Fifteen-mer peptides overlapping by 10 amino acids were generated and the last 15-mer peptide was added when the sequence length was not divisible by 5, 14,783 unique peptides remained.
HLA class II binding predictions optimized for global coverage were performed for the seven class II alleles (HLA-DRB1*03:01, HLA-DRB1*07:01, HLA-DRB1*15:01, HLA-DRB3*01:01, HLA-DRB3*02:02, HLA-DRB4*01:01 and HLA-DRB5*01:01) using the standalone version of the IEDB class II binding prediction tool. The median consensus percentile rank was estimated from the consensus percentile ranks for the seven alleles. Further, peptides with more than ten overlapping amino acids, which appeared because several occurrences of some sequence regions were repeated multiple times in the same sequence, were eliminated (e.g. “[…]” was repeated seven times in one sequence.) Variant peptides were also removed, retaining the better peptide based on the median consensus percentile rank and conservation among the sequences within its respective cluster. Peptides with median consensus percentile rank ≤10.0 and conserved in ≥35% of sequences in the same cluster were finally selected, also including additional selected peptides chosen to maximize DRB1 allele coverage, for a grand total of 2,589 peptides.
Peptides were purchased from Mimotopes (Clayton, Victoria, Australia) or A and A (San Diego, Calif.) as crude material on a small (1-mg) scale. Individual peptides were resuspended in DMSO at a final concentration of 40 mg/mL. Peptide “megapools” of 30-65 peptides/pool were generated. Following lyophilization, each pool was reconstituted in DMSO so that each peptide was present at a concentration of 4 mg/mL. To facilitate deconvolution of positive megapools, each megapool was further broken down in 2-6 “mesopools” (259 mesopools in total), each containing 8-14 peptides. Each mesopool was then deconvoluted to identify individual positive peptides. To avoid dimerization and polymerization of peptides by intra- and intermolecular disulfide bond formation between cysteine residues, this amino acid were in some instances substituted by a serine residue in the peptides. Such peptides are herein marked with an asterisk (*).
PBMCs from European HDM-allergic individuals were recruited in the Copenhagen region (defined by clinical history of allergy to house dust mite and specific IgE to group 1 and group 2 major allergens from Der p and/or Der f and with measured specific IgE (CAP) >0.7 kU/L towards Der p/f 1 or Der p/f 2. In addition, PBMCs from 10 US HDM-allergic individuals were recruited in San Diego (defined by Der p extract IgE titers greater than 0.35 kUA/L). PBMCs were isolated from whole blood by density gradient centrifugation according to manufacturers' instructions (Ficoll-Hypaque, Amersham Biosciences, Uppsala, Sweden). Der p- and Der f-specific extract IgE titers were determined using the ImmunoCAP system (Thermo Fisher, Uppsala, Sweden). In a separate series of experiments, pooled plasma from 10 European and 10 American HDM atopic individuals from the San Diego region, respectively, was utilized to run 2D immunoblots to elucidate IgE and IgG reactivity towards the proteins, which had at least one peptide with positive T cell response.
HDM-specific T cells were expanded in vitro. Briefly, PBMCs from HDM-allergic individuals were stimulated with HDM extract (5 μg/mL) and expanded over 14-17 days with IL-2 (added every 3 days). Cells were harvested on day 14, restimulated with HDM extract (5 μg/mL), individual peptides (10 μg/mL) or peptide pools (5 μg/mL) and screened for […]/IL-5-production by ELISPOT. Criteria for positivity were 100 or 20 spot forming cells (SFCs) per 10^6 PBMCs for peptide pools or single peptides, respectively, p<0.05, and a stimulation index >2.

With “152 (LRGAFSESTAVYPSA; Immunogenic fragment) [compound 152]”, the SFC/donor is reported as 5 SFC/donor and the “% responder” value is 5%.

Regarding “86 (RLYSVELDGSHLIVR; Immunogenic fragment) [compound 86]”, the SFC/donor was determined as 3 SFC/donor and the “% responder” value amounted to 5%.

As to “148 (TWWFDEAPMLSSSQY; Immunogenic fragment) [compound 148]”, the SFC/donor was found to be 21 SFC/donor and the “% responder” value turned out to be 10%.

With “141 (KHEIFVVADLIDRKS; Immunogenic fragment) [compound 141]”, the SFC/donor amounted to 7 SFC/donor and the “% responder” value is 5%.

As for “104 (LHNLYSLSMAMATNA; Immunogenic fragment) [compound 104]”, the SFC/donor was found to be 29 SFC/donor and the “% responder” value is reported as 10%.

As to “118 (SSLQYRYRFLAHLYT; Immunogenic fragment) [compound 118]”, the SFC/donor is given as 37 SFC/donor and the “% responder” value came to 20%.

With “125 (FFRSGSIIPIQGPQN; Immunogenic fragment) [compound 125]”, the SFC/donor came out at 5 SFC/donor and the “% responder” value is 5%.

As for “85 (DQVLRLKFIDANQKR; Immunogenic fragment) [compound 85]”, the SFC/donor is on record as 222 SFC/donor and the “% responder” value was 20%.

Regarding “126 (TQNINFINILGVPKL; Immunogenic fragment) [compound 126]”, the SFC/donor is 72 SFC/donor and the “% responder” value was 15%.

Regarding “YPRKYAFALPKDSQY (Immunogenic fragment) [Peptide 187, fragment of A0023 Der f]”, the SFC/donor came to 25 SFC/donor and the “% responder” value worked out at 10%.

In the case of “145 (PPKPELLVIDTELGR; Immunogenic fragment) [compound 145]”, the SFC/donor came to 228 SFC/donor and the “% responder” value is 30%.

In the case of “99 (AEYHKTIAFDGAWLD; Immunogenic fragment) [compound 99]”, the SFC/donor was found to be 24 SFC/donor and the “% responder” value was 15%.

Regarding “63 (EFCPYLNISSCPSTE; Immunogenic fragment) [compound 63]”, the SFC/donor was 7 SFC/donor and the “% responder” value is listed as 10%.

“EARENYITFTEPFMI (Immunogenic fragment) [Peptide 179, fragment of A0023 Der f/p]”: the SFC/donor is on record as 5 SFC/donor and the “% responder” value turned out to be 5%.

Regarding “122 (FMWGDSMLIAPILYP; Immunogenic fragment) [compound 122]”, the SFC/donor is reported as 2 SFC/donor and the “% responder” value came out at 5%.

In the case of “91 (GVFLFNSNAMDILTQ; Immunogenic fragment) [compound 91]”, the SFC/donor came to 9 SFC/donor and the “% responder” value is 5%.

“108 (NKRPFIISRATAPGH; Immunogenic fragment) [compound 108]”: the SFC/donor was found to be 146 SFC/donor and the “% responder” value is 5%.

In the case of “47 (ELLKKKGIIPGIKVD; Immunogenic fragment) [compound 47]”, the SFC/donor was 12 SFC/donor and the “% responder” value is 5%.

For the substance “97 (NATEYWMDMFAEYHK; Immunogenic fragment) [compound 97]”, the SFC/donor is given as 227 SFC/donor and the “% responder” value worked out at 25%.

For the substance “84 (IHQLNDQVLRLKFID; Immunogenic fragment) [compound 84]”, the SFC/donor is listed as 3 SFC/donor and the “% responder” value worked out at 5%.

With “79 (GNDLKNLSSKVLPNL; Immunogenic fragment) [compound 79]”, the SFC/donor was found to be 5 SFC/donor and the “% responder” value was 5%.

For the substance “LGTLRNGATNHFLSK (Immunogenic fragment) [Peptide 183, fragment of A0023 Der f]”, the SFC/donor worked out at 163 SFC/donor and the “% responder” value is given as 20%.

On to “81 (DDGNLISRALPHLGV; Immunogenic fragment) [compound 81]”, for which the SFC/donor amounted to 8 SFC/donor and the “% responder” value came out at 5%.

As to “93 (QVVQQYHNLIGLPAM; Immunogenic fragment) [compound 93]”, the SFC/donor stood at 11 SFC/donor and the “% responder” value was determined as 10%.

“114 (YQLGAFYSFARNHND; Immunogenic fragment) [compound 114]”: the SFC/donor is recorded as 35 SFC/donor and the “% responder” value came out at 15%.

Consider “109 (HWNGDILSDWSSMRW; Immunogenic fragment) [compound 109]”, for which the SFC/donor is given as 88 SFC/donor and the “% responder” value is listed as 25%.

With “87 (QSIFDINLAYMVYSD; Immunogenic fragment) [compound 87]”, the SFC/donor was 69 SFC/donor and the “% responder” value is given as 20%.

As for “128 (YQTNQSIIILEILGI; Immunogenic fragment) [compound 128]”, the SFC/donor was 10 SFC/donor and the “% responder” value was 10%.

“95 (TTYTRNRAVGIPMDV; Immunogenic fragment) [compound 95]”: the SFC/donor came to 77 SFC/donor and the “% responder” value stood at 15%.

As to “112 (PSILNFNLFGVPMIG; Immunogenic fragment) [compound 112]”, the SFC/donor is listed as 4 SFC/donor and the “% responder” value was determined as 5%.

For the substance “90 (TKLASGVFLFNSNAM; Immunogenic fragment) [compound 90]”, the SFC/donor is on record as 11 SFC/donor and the “% responder” value is reported as 5%.

As for “YITFTEPFMINQLAA (Immunogenic fragment) [Peptide 180, fragment of A0023 Der f/p]”, the SFC/donor was determined as 29 SFC/donor and the “% responder” value was 10%.

In the case of “57 (WEGLNAVKTGRVMLG; Immunogenic fragment) [compound 57]”, the SFC/donor turned out to be 5 SFC/donor and the “% responder” value is 5%.

On to “94 (FTNLNTTYTRNRAVG; Immunogenic fragment) [compound 94]”, for which the SFC/donor worked out at 94 SFC/donor and the “% responder” value is on record as 15%.

In the case of “80 (NLSSKVLPNLNVPYC; Immunogenic fragment) [compound 80]”, the SFC/donor was 4 SFC/donor and the “% responder” value was determined as 5%.

Take “LTMLLDWRNLYPRKY (Immunogenic fragment) [Peptide 185, fragment of A0023 Der f]”: the SFC/donor was determined as 15 SFC/donor and the “% responder” value amounted to 5%.

As for “GYAFIMESSSAEHEI (Immunogenic fragment) [Peptide 184, fragment of A0023 Der f]”, the SFC/donor is 16 SFC/donor and the “% responder” value stood at 10%.

On to “130 (SIIFDGKPYYQFIYT; Immunogenic fragment) [compound 130]”, for which the SFC/donor came out at 55 SFC/donor and the “% responder” value worked out at 5%.

On to “82 (YIGYKIEKHSKNLIQ; Immunogenic fragment) [compound 82]”, for which the SFC/donor was determined as 4 SFC/donor and the “% responder” value is reported as 5%.

For the substance “58 (ITRLREAMGVMQHHD; Immunogenic fragment) [compound 58]”, the SFC/donor turned out to be 8 SFC/donor and the “% responder” value is given as 5%.

Values taken from patent US10556936B2, “Immunogenic proteins and fragments thereof from allergenic mites” (ALK-ABELLÓ A/S, priority 2016, dated 2020).
